From patent US20200016122A1, “METHOD FOR REDUCING ITCHING IN ATOPIC DERMATITIS” (priority 2018, published 2020)

Experiments:
human skin = test: patch test on human skin; type: in vivo; details: patch tests on human skin
Description: (§1) The present inventors performed single oral dose toxicity tests (2,000 mg/kg) for N-nonanoyltryptamine over 14 days using Kwl:ICR mice. […] Patch tests were performed on human skin, the skin irritation index was 0.0, and the safety was confirmed (LIFE SCIENCE LABORATORIES, LTD., June 2011).

goats = type: in vivo; details: 1.0 mg/50 kg/day over 4 years
Kwl:ICR mice = details: mouse, in vivo, 14 days
Description: as §1

With `CCCCCCCCC(=O)NCCc1c[nH]c2ccccc12` [N-nonanoyltryptamine] as the compound, how does the skin irritation index (human skin) read?
The skin irritation index was 0.0.

What about the breeding effect (goats) of the same compound?
The breeding effect was “strong breeding effect”.

What about the lethal dose (Kwl:ICR mice) of the same compound?
The lethal dose was ≥ 2,000 mg/kg.
